The experiment relates to MV-4-11 cells. Put plainly: Gene expression microarray analysis (Affymetrix PrimeView) and GSEA. It counts as cell-based, human. Also noted: RFU PODN (11730768_x_at) / Fold change /veh PODN (11730768_x_at) / RFU LINC00158 (11744669_a_at) / Fold change /veh LINC00158 (11744669_a_at) / RFU DUSP10 (11751237_a_at) / Fold change /veh DUSP10 (11751237_a_at) / RFU ID3 (11757404_x_at) / Fold change /veh ID3 (11757404_x_at) / RFU PLEKHG5 (11737974_s_at) / Fold change /veh PLEKHG5 (11737974_s_at) / RFU LRRC4B (11730491_at) / Fold change /veh LRRC4B (11730491_at) / RFU GIMAP4 (11747438_a_at) / Fold change /veh GIMAP4 (11747438_a_at) / RFU KRT8 (11758183_x_at) / Fold change /veh KRT8 (11758183_x_at) / RFU CNN1 (11734310_a_at) / Fold change /veh CNN1 (11734310_a_at) / RFU VPS37D (11726825_at) / Fold change /veh VPS37D (11726825_at) / RFU C10orf10 (11716522_x_at) / Fold change /veh C10orf10 (11716522_x_at) / RFU KIR2DL2 /// KIR2DL4 /// KIR2DL5A /// KIR2DL5B /// KIR2DS1 /// KIR2DS2 /// KIR2DS3 /// KIR2DS4 /// KIR3DL3 /// KIR3DL3 /// KIR3DS1 (11738374_at) / Fold change /veh KIR2DL2 /// KIR2DL4 /// KIR2DL5A /// KIR2DL5B /// KIR2DS1 /// KIR2DS2 /// KIR2DS3 /// KIR2DS4 /// KIR3DL3 /// KIR3DL3 /// KIR3DS1 (11738374_at) / RFU C1QL1 (11718748_at) / Fold change /veh C1QL1 (11718748_at) / RFU TMPRSS4 (11747572_a_at) / Fold change /veh TMPRSS4 (11747572_a_at) / RFU HAMP (11756126_x_at) / Fold change /veh HAMP (11756126_x_at) / RFU RNFT2 (11725882_a_at) / Fold change /veh RNFT2 (11725882_a_at) / RFU NR4A2 (11747474_a_at) / Fold change /veh NR4A2 (11747474_a_at) / RFU ABCC12 (11746883_a_at) / Fold change /veh ABCC12 (11746883_a_at) / RFU TMEM136 (11760407_x_at) / Fold change /veh TMEM136 (11760407_x_at) / RFU CLDN22 /// WWC2 (11732394_at) / Fold change /veh CLDN22 /// WWC2 (11732394_at) / RFU HLA-DPB1 (11760878_x_at) / Fold change /veh HLA-DPB1 (11760878_x_at) / RFU SPINT1 (11716480_a_at) / Fold change /veh SPINT1 (11716480_a_at) / RFU GAP43 (11754022_s_at) / Fold change /veh GAP43 (11754022_s_at) / RFU A4GNT (11735810_at) / Fold change /veh A4GNT (11735810_at) / RFU PRB3 (11715151_x_at) / Fold change /veh PRB3 (11715151_x_at) / RFU TUBB4B (11761932_at) / Fold change /veh TUBB4B (11761932_at) / RFU CAPN14 (11732068_a_at) / Fold change /veh CAPN14 (11732068_a_at) / RFU TMCC2 (11721928_a_at) / Fold change /veh TMCC2 (11721928_a_at) / RFU IRGQ (11745062_a_at) / Fold change /veh IRGQ (11745062_a_at) / RFU FAM174B (11720279_a_at) / Fold change /veh FAM174B (11720279_a_at) / RFU TMPRSS4 (11748680_a_at) / Fold change /veh TMPRSS4 (11748680_a_at) / RFU FAM212B (11763350_a_at) / Fold change /veh FAM212B (11763350_a_at) / RFU PLEKHG5 (11743358_a_at) / Fold change /veh PLEKHG5 (11743358_a_at) / RFU ZSCAN30 (11745921_a_at) / Fold change /veh ZSCAN30 (11745921_a_at) / RFU CMKLR1 (11741424_a_at) / Fold change /veh CMKLR1 (11741424_a_at) / RFU LOC101060620 /// MAPK8IP1 (11723275_at) / Fold change /veh LOC101060620 /// MAPK8IP1 (11723275_at) / RFU SPTSSB (11747773_x_at) / Fold change /veh SPTSSB (11747773_x_at) / RFU PRSS12 (11739890_at) / Fold change /veh PRSS12 (11739890_at) / RFU BIN1 (11741810_x_at) / Fold change /veh BIN1 (11741810_x_at) / RFU WNT11 (11732464_a_at) / Fold change /veh WNT11 (11732464_a_at) / RFU C10orf10 (11716521_a_at) / Fold change /veh C10orf10 (11716521_a_at) / RFU C5orf56 (11738089_at) / Fold change /veh C5orf56 (11738089_at) / RFU CYB561 (11721691_x_at) / Fold change /veh CYB561 (11721691_x_at) / RFU ANKRD19P (11752326_a_at) / Fold change /veh ANKRD19P (11752326_a_at) / RFU OR2T12 /// OR2T33 /// OR2T8 (11738714_s_at) / Fold change /veh OR2T12 /// OR2T33 /// OR2T8 (11738714_s_at) / RFU VCAN (11748164_a_at) / Fold change /veh VCAN (11748164_a_at) / RFU JSRP1 (11732532_at) / Fold change /veh JSRP1 (11732532_at) / RFU KRTAP10-11 (11738290_x_at) / Fold change /veh KRTAP10-11 (11738290_x_at) / RFU MYO3A (11730013_a_at) / Fold change /veh MYO3A (11730013_a_at) / RFU EBF3 (11725865_a_at) / Fold change /veh EBF3 (11725865_a_at) / RFU CAMK2N1 (11719241_x_at) / Fold change /veh CAMK2N1 (11719241_x_at) / RFU C5orf56 (11738088_a_at) / Fold change /veh C5orf56 (11738088_a_at) / RFU OLFML3 (11715873_a_at) / Fold change /veh OLFML3 (11715873_a_at) / RFU LOC100653217 /// NTM (11731650_a_at) / Fold change /veh LOC100653217 /// NTM (11731650_a_at) / RFU MAPK11 (11762145_a_at) / Fold change /veh MAPK11 (11762145_a_at) / RFU FIZ1 (11724087_x_at) / Fold change /veh FIZ1 (11724087_x_at) / RFU OASL (11726364_x_at) / Fold change /veh OASL (11726364_x_at) / RFU SOX15 (11748057_x_at) / Fold change /veh SOX15 (11748057_x_at) / RFU CD79A (11719716_a_at) / Fold change /veh CD79A (11719716_a_at) / RFU HIST1H1D (11736915_at) / Fold change /veh HIST1H1D (11736915_at) / RFU CASKIN2 (11723855_a_at) / Fold change /veh CASKIN2 (11723855_a_at) / RFU LOC730098 (11760151_x_at) / Fold change /veh LOC730098 (11760151_x_at) / RFU OR4N2 (11742367_at) / Fold change /veh OR4N2 (11742367_at) / RFU PRRT2 (11749266_a_at) / Fold change /veh PRRT2 (11749266_a_at) / RFU SNX32 (11753110_a_at) / Fold change /veh SNX32 (11753110_a_at) / RFU CDHR5 (11726645_a_at) / Fold change /veh CDHR5 (11726645_a_at) / RFU RCAN1 (11760418_a_at) / Fold change /veh RCAN1 (11760418_a_at) / RFU FAM167A (11723789_a_at) / Fold change /veh FAM167A (11723789_a_at) / RFU FAM26E (11764081_at) / Fold change /veh FAM26E (11764081_at) / RFU ISYNA1 (11749810_s_at) / Fold change /veh ISYNA1 (11749810_s_at) / RFU ACY1 (11761880_at) / Fold change /veh ACY1 (11761880_at) / RFU 11764098_at / Fold change /veh 11764098_at / RFU SAMD14 (11745864_x_at) / Fold change /veh SAMD14 (11745864_x_at) / RFU NPB (11741838_a_at) / Fold change /veh NPB (11741838_a_at) / RFU TMPRSS6 (11731388_a_at) / Fold change /veh TMPRSS6 (11731388_a_at) / RFU KRTAP10-2 (11738614_at) / Fold change /veh KRTAP10-2 (11738614_at) / RFU ARHGAP8 /// PRR5-ARHGAP8 (11727945_x_at) / Fold change /veh ARHGAP8 /// PRR5-ARHGAP8 (11727945_x_at) / RFU KRTAP5-7 /// NADSYN1 (11734609_at) / Fold change /veh KRTAP5-7 /// NADSYN1 (11734609_at) / RFU RASL12 (11751679_a_at) / Fold change /veh RASL12 (11751679_a_at) / RFU CDKN2B (11736163_a_at) / Fold change /veh CDKN2B (11736163_a_at) / RFU PRF1 (11729649_at) / Fold change /veh PRF1 (11729649_at) / RFU, ZNF638 /// ZNF638-IT1 / Fold change vs veh, ZNF638 /// ZNF638-IT1 / RFU, PANK3 / Fold change vs veh, PANK3 / RFU, SH3YL1 / Fold change vs veh, SH3YL1 / RFU, ZEB2 / Fold change vs veh, ZEB2 / RFU, NRIP1 / Fold change vs veh, NRIP1 / RFU, PTTG1IP / Fold change vs veh, PTTG1IP / RFU, CAPN2 / Fold change vs veh, CAPN2 / RFU, MED14 / Fold change vs veh, MED14 / RFU, SNORA58 / Fold change vs veh, SNORA58 / RFU, C1orf63 / Fold change vs veh, C1orf63 / RFU, LRRFIP1 / Fold change vs veh, LRRFIP1 / RFU, NDUFAF7 / Fold change vs veh, NDUFAF7 / RFU, SLC12A2 / Fold change vs veh, SLC12A2 / RFU, IBTK / Fold change vs veh, IBTK / RFU, ESF1 / Fold change vs veh, ESF1 / Fold change vs veh, TMEM50B / RFU, TAOK1 / Fold change vs veh, TAOK1 / RFU, ACBD3 / Fold change vs veh, ACBD3 / RFU, TMA16 / Fold change vs veh, TMA16 / RFU, RWDD3 / Fold change vs veh, RWDD3 / RFU, BCAT1 / Fold change vs veh, BCAT1 / RFU, EDEM3 / Fold change vs veh, EDEM3 / RFU, TMEM33 / Fold change vs veh, TMEM33 / RFU, WDR75 / Fold change vs veh, WDR75 / RFU, AHCTF1 / Fold change vs veh, AHCTF1 / RFU, TFRC / Fold change vs veh, TFRC / RFU, ZDHHC17 / Fold change vs veh, ZDHHC17 / RFU, NOM1 / Fold change vs veh, NOM1 / RFU, ARL8B / Fold change vs veh, ARL8B / RFU, ZBTB11 / Fold change vs veh, ZBTB11 / RFU, TAMM41 / Fold change vs veh, TAMM41 / RFU, KIAA1704 /// LOC100996395 / Fold change vs veh, KIAA1704 /// LOC100996395 / RFU, ING1 / Fold change vs veh, ING1 / RFU, TRMT61B / Fold change vs veh, TRMT61B / RFU, FUBP3 / Fold change vs veh, FUBP3 / RFU, TP53 / Fold change vs veh, TP53 / RFU, TNKS2 / Fold change vs veh, TNKS2 / RFU, ZFP14 / Fold change vs veh, ZFP14 / RFU, ACTR2 / Fold change vs veh, ACTR2 / RFU, PPP3R1 / Fold change vs veh, PPP3R1 / RFU, PIK3R1 / Fold change vs veh, PIK3R1 / RFU, HNRNPA1 / Fold change vs veh, HNRNPA1 / RFU, RNF170 / Fold change vs veh, RNF170 / RFU, ZNF28 / Fold change vs veh, ZNF28 / RFU, RNGTT / Fold change vs veh, RNGTT / RFU, OGT / Fold change vs veh, OGT / RFU, BRD1 / Fold change vs veh, BRD1 / RFU, MARS / Fold change vs veh, MARS / RFU, ZNF655 / Fold change vs veh, ZNF655 / RFU, FAHD1 / Fold change vs veh, FAHD1 / RFU, BDP1 / Fold change vs veh, BDP1 / RFU, LRRCC1 / Fold change vs veh, LRRCC1 / RFU, ARID1A / Fold change vs veh, ARID1A / RFU, ZNF146 / Fold change vs veh, ZNF146 / RFU, ZNF330 / Fold change vs veh, ZNF330 / RFU, GPN3 / Fold change vs veh, GPN3 / RFU, C9orf123 / Fold change vs veh, C9orf123 / RFU, N4BP2L2 / Fold change vs veh, N4BP2L2 / RFU, ARFIP1 / Fold change vs veh, ARFIP1 / RFU, FAM179B / Fold change vs veh, FAM179B / RFU, BCL10 / Fold change vs veh, BCL10 / RFU, UHRF1BP1L / Fold change vs veh, UHRF1BP1L / RFU, BET1 / Fold change vs veh, BET1 / RFU, CNOT2 / Fold change vs veh, CNOT2 / RFU, ZNF268 / Fold change vs veh, ZNF268 / Fold change vs veh, ZNF507 / RFU, DGCR2 / Fold change vs veh, DGCR2 / RFU, WDSUB1 / Fold change vs veh, WDSUB1 / Fold change vs veh, HSP90B1 /// MIR3652 / RFU, ADSS / Fold change vs veh, ADSS / RFU, GK / Fold change vs veh, GK / RFU, ZNF148 / Fold change vs veh, ZNF148 / RFU, TAF9 / Fold change vs veh, TAF9 / RFU, SLC1A5 / Fold change vs veh, SLC1A5 / RFU, SLMO2 / Fold change vs veh, SLMO2 / RFU, ABCC4 / Fold change vs veh, ABCC4 / RFU, LOC101060439 /// RAP1B / Fold change vs veh, LOC101060439 /// RAP1B / RFU, RFX7 / Fold change vs veh, RFX7 / RFU, GTPBP10 / Fold change vs veh, GTPBP10 / RFU, CNEP1R1 / Fold change vs veh, CNEP1R1 / RFU, BIVM-ERCC5 /// ERCC5 / Fold change vs veh, BIVM-ERCC5 /// ERCC5 / RFU, ILF3 / Fold change vs veh, ILF3 / RFU 11762660_at / Fold change /veh 11762660_at / RFU VCAN (11757783_s_at) / Fold change /veh VCAN (11757783_s_at) / RFU DDX43 (11728927_at) / Fold change /veh DDX43 (11728927_at) / RFU KRT8 (11758188_x_at) / Fold change /veh KRT8 (11758188_x_at) / RFU NKD1 (11759106_at) / Fold change /veh NKD1 (11759106_at) / RFU SRD5A1 (11742802_a_at) / Fold change /veh SRD5A1 (11742802_a_at) / RFU TPSAB1 /// TPSB2 (11721975_s_at) / Fold change /veh TPSAB1 /// TPSB2 (11721975_s_at) / RFU GSTM3 (11746129_a_at) / Fold change /veh GSTM3 (11746129_a_at) / RFU IL23R (11737362_x_at) / Fold change /veh IL23R (11737362_x_at) / RFU TMEM51 (11727254_a_at) / Fold change /veh TMEM51 (11727254_a_at) / RFU PIWIL2 (11732686_x_at) / Fold change /veh PIWIL2 (11732686_x_at) / RFU ORM1 (11744905_x_at) / Fold change /veh ORM1 (11744905_x_at) / RFU CCDC152 (11743942_at) / Fold change /veh CCDC152 (11743942_at) / RFU ECM1 (11717891_a_at) / Fold change /veh ECM1 (11717891_a_at) / RFU IL23R (11748794_a_at) / Fold change /veh IL23R (11748794_a_at) / RFU TNFAIP8L3 (11732012_x_at) / Fold change /veh TNFAIP8L3 (11732012_x_at) / RFU MBOAT4 (11741988_at) / Fold change /veh MBOAT4 (11741988_at) / RFU 11764193_at / Fold change /veh 11764193_at / RFU TMEM53 (11763286_at) / Fold change /veh TMEM53 (11763286_at) / RFU MAGEB2 (11727129_at) / Fold change /veh MAGEB2 (11727129_at) / RFU TMEM200A (11744735_a_at) / Fold change /veh TMEM200A (11744735_a_at) / RFU CCDC152 (11751479_a_at) / Fold change /veh CCDC152 (11751479_a_at) / RFU FAM211A (11726209_a_at) / Fold change /veh FAM211A (11726209_a_at) / RFU RGS16 (11746705_a_at) / Fold change /veh RGS16 (11746705_a_at) / RFU VCAN (11755009_s_at) / Fold change /veh VCAN (11755009_s_at) / RFU RHOB (11743442_s_at) / Fold change /veh RHOB (11743442_s_at) / RFU RGS16 (11720943_a_at) / Fold change /veh RGS16 (11720943_a_at) / RFU RGS16 (11720944_at) / Fold change /veh RGS16 (11720944_at) / RFU, VPS4B / Fold change vs veh, VPS4B / RFU, CREB1 / Fold change vs veh, CREB1 / RFU, DNAJC13 / Fold change vs veh, DNAJC13 / RFU, GNAQ / Fold change vs veh, GNAQ / RFU, CDK5R1 / Fold change vs veh, CDK5R1 / RFU, ZRANB3 / Fold change vs veh, ZRANB3 / RFU, CUL4A / Fold change vs veh, CUL4A / RFU, CCNY / Fold change vs veh, CCNY / RFU, UFL1 / Fold change vs veh, UFL1 / RFU, COG3 / Fold change vs veh, COG3 / RFU, DIAPH2 / Fold change vs veh, DIAPH2 / RFU, SKA2 / Fold change vs veh, SKA2 / RFU, AFF3 / Fold change vs veh, AFF3 / RFU, LMF1 / Fold change vs veh, LMF1 / RFU, IPO11 / Fold change vs veh, IPO11 / RFU, DFFB / Fold change vs veh, DFFB / RFU, FOXP1 / Fold change vs veh, FOXP1 / RFU, CARD8 / Fold change vs veh, CARD8 / RFU, STRN3 / Fold change vs veh, STRN3 / RFU, ADK / Fold change vs veh, ADK / RFU, RASSF2 / Fold change vs veh, RASSF2 / RFU, WIPF1 / Fold change vs veh, WIPF1 / RFU, LARP1B / Fold change vs veh, LARP1B / RFU, RASA1 / Fold change vs veh, RASA1 / RFU, RB1 / Fold change vs veh, RB1 / RFU, PPFIA1 / Fold change vs veh, PPFIA1 / RFU, MAT2A / Fold change vs veh, MAT2A / RFU, CCT5 / Fold change vs veh, CCT5 / RFU, WDR92 / Fold change vs veh, WDR92 / RFU, CUX1 / Fold change vs veh, CUX1 / RFU, TTC7A / Fold change vs veh, TTC7A / RFU, TMEM135 / Fold change vs veh, TMEM135 / RFU, DEPTOR / Fold change vs veh, DEPTOR / RFU, CPM / Fold change vs veh, CPM / RFU, DNAJB6 / Fold change vs veh, DNAJB6 / RFU, CACNA2D3 / Fold change vs veh, CACNA2D3 / RFU, DTX4 / Fold change vs veh, DTX4 / RFU, TFCP2 / Fold change vs veh, TFCP2 / RFU, GMCL1 /// GMCL1P1 / Fold change vs veh, GMCL1 /// GMCL1P1 / RFU, AEBP2 / Fold change vs veh, AEBP2 / RFU, SNHG1 /// SNORD22 /// SNORD25 /// SNORD26 /// SNORD27 /// SNORD28 /// SNORD29 /// SNORD31 / Fold change vs veh, SNHG1 /// SNORD22 /// SNORD25 /// SNORD26 /// SNORD27 /// SNORD28 /// SNORD29 /// SNORD31 / Fold change (Aza/veh), C12orf56 (ProbeSet 11735607_a_at) / Fold change (ACY-1035/veh), C12orf56 (ProbeSet 11735607_a_at) / Fold change (Aza/veh), FGFR1OP (ProbeSet 11751329_s_at) / Fold change (ACY-1035/veh), FGFR1OP (ProbeSet 11751329_s_at) / Fold change (Aza/veh), VPS36 (ProbeSet 11739960_a_at) / Fold change (ACY-1035/veh), VPS36 (ProbeSet 11739960_a_at) / RFU SYPL1 (11715823_x_at) / Fold change /veh SYPL1 (11715823_x_at) / RFU IGFBP7 (11715501_s_at) / Fold change /veh IGFBP7 (11715501_s_at) / RFU REEP3 (11722064_at) / Fold change /veh REEP3 (11722064_at) / RFU IGLL1 (11728026_x_at) / Fold change /veh IGLL1 (11728026_x_at): dose or concentration left out as unconfirmed. The note with it: MV-4-11 cells, 48 hours.

On to `Nc1ncn([C@@H]2O[C@H](CO)[C@@H](O)[C@H]2O)c(=O)n1` [azacitidine], for which the “Fold change /veh MBOAT4 (11741988_at)” value is 1.51.

The record behind these values is article PMC5218480 (PLoS ONE, 2017).
